Laboratory results taken from US20240383915A1, “OXAZEPINE COMPOUNDS AND USES THEREOF IN THE TREATMENT OF CANCER” (Genentech, Inc., priority 2021, published 2024).
pIC50: −log10 of the molar value.

Assays:
KRas = KRas (Homo sapiens (Human), UniProt P01116); experiment: KRas GDP HTRF (BODIPY-GDP exchange TR-FRET); type: biochemical
Experimental: KRAS Biochemical Assay—BODIPY-GDP Exchange TR-FRET. Biochemical compound potencies were assessed by evaluating inhibition of SOS1-mediated nucleotide exchange in KRAS G12D. The SOS1-promoted exchange of fluorescently-labeled GDP (BODIPY-GDP) was monitored by time-resolved fluorescence resonance energy transfer (TR-FRET). Compounds solubilized in DMSO were dispensed as concentration series into 384-well white assay plates. […] The reaction was initiated with the addition of 5 μL of 3 nM recombinant human SOS1 and 300 nM BODIPY-GDP in assay buffer. After a 60-minute incubation, the fluorescence was measured with excitation at 337 nm and emission at 490 and 520 nm. The TR-FRET ratio was determined as the fluorescence at 520 nm divided by the fluorescence at 490 nm multiplied by 10,000. […] The normalized TR-FRET results were plotted against compound concentration, and the data fit to a 4-parameter Hill equation to determine the IC50 values.

KRas(G12V) = KRas(G12V) (Homo sapiens (Human), UniProt P01116, G12V); experiment: KRas(G12V) GDP HTRF (BODIPY-GDP exchange TR-FRET); type: biochemical
Chain of KRas(G12V) (P01116-2 other isoform, or with tags, fused parts or gaps G12V): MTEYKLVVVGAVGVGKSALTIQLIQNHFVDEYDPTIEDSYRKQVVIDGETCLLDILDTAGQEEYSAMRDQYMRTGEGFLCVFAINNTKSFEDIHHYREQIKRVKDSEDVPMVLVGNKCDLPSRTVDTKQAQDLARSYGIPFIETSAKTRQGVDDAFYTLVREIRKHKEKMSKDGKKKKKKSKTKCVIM

Chain of KRas (P01116-2 other isoform, or with tags, fused parts or gaps): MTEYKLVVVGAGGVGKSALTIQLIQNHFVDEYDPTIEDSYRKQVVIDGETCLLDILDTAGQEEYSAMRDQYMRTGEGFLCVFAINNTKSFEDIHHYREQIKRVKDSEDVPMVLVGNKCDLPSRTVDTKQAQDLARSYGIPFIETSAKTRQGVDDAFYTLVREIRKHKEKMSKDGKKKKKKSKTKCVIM

SMILES | pIC50 (KRas) | pIC50 (KRas(G12V))
Cc1cc(N)nc(-c2cc3ncnc4c3c(c2Cl)OCCN4C2CCc3c(N)cncc32)c1C(F)(F)F (stereo not drawn) [Example 37, 7-(9-(6-amino-4-methyl-3-(trifluoromethyl)pyridin-2-yl)-8-chloro-5,6-dihydro-4H-[1,4]oxazepino[5,6,7-de]quinazolin-4-yl)-6,7-dihydro-5H-cyclopenta[c]pyridin-4-amine] | 6.57 | 7.28
Cc1cc(N)nc(-c2c(Cl)c3c4c(nc(OC(C)(C)[C@@H]5CC(F)(F)CN5C)nc4c2F)N([C@H](C)c2cccnc2N)CCO3)c1C(F)(F)F (atropisomer, axis not shown) [Example 72, 6-((R)-4-((R)-1-(2-aminopyridin-3-yl)ethyl)-8-chloro-2-((2-((S)-4,4-difluoro-1-methylpyrrolidin-2-yl)propan-2-yl)oxy)-10-fluoro-5,6-dihydro-4H-[1,4]oxazepino[5,6,7-de]quinazolin-9-yl)-4-methyl-5-(trifluoromethyl)pyridin-2-amine] | 6.84 | 7.92
Cc1cc(N)nc(-c2c(Cl)c3c4c(nc(OC[C@H]5CC[C@@H]6CO[C@@H](C)CN56)nc4c2F)N([C@H](C)c2cccnc2N)CCO3)c1C(F)(F)F (atropisomer, axis not shown; (aR)) [Example 93b, 6-((R)-4-((R)-1-(2-aminopyridin-3-yl)ethyl)-8-chloro-10-fluoro-2-(((3S,6R,8aR)-3-methylhexahydro-1H-pyrrolo[2,1-c][1,4]oxazin-6-yl)methoxy)-5,6-dihydro-4H-[1,4]oxazepino[5,6,7-de]quinazolin-9-yl)-4-methyl-5-(trifluoromethyl)pyridin-2-amine] | 9.46 | 9.85
Cc1cc(N)nc(-c2cc3ncnc4c3c(c2Cl)OCCN4Cc2cnc[nH]2)c1C(F)(F)F [Example 30, 6-(4-((1H-imidazol-5-yl)methyl)-8-chloro-5,6-dihydro-4H-[1,4]oxazepino[5,6,7-de]quinazolin-9-yl)-4-methyl-5-(trifluoromethyl)pyridin-2-amine] | 4.46 | 5.33
CN1CCOc2c(Cl)c(-c3c(F)ccc4cnn(C)c34)cc3nc(OC[C@@]45CCCN4C[C@H](F)C5)nc1c23 [Example 8, 8-chloro-9-(6-fluoro-1-methyl-1H-indazol-7-yl)-2-(((2R,7aS)-2-fluorotetrahydro-1H-pyrrolizin-7a(5H)-yl)methoxy)-4-methyl-5,6-dihydro-4H-[1,4]oxazepino[5,6,7-de]quinazoline] | 5.41 | 6.09
Cc1cc(N)nc(-c2cc3ncnc4c3c(c2Cl)OCCN4C2(c3cccnc3N)CC2)c1C(F)(F)F [Example 11, 6-(4-(1-(2-aminopyridin-3-yl)cyclopropyl)-8-chloro-5,6-dihydro-4H-[1,4]oxazepino[5,6,7-de]quinazolin-9-yl)-4-methyl-5-(trifluoromethyl)pyridin-2-amine] | 4.85 | 6.00
Cc1cc(N)nc(-c2cc3ncnc4c3c(c2Cl)OCCN4Cc2ccns2)c1C(F)(F)F [Example 22, 6-(8-chloro-4-(isothiazol-5-ylmethyl)-5,6-dihydro-4H-[1,4]oxazepino[5,6,7-de]quinazolin-9-yl)-4-methyl-5-(trifluoromethyl)pyridin-2-amine] | 4.37 | 4.96
Cc1cc(N)nc(-c2c(Cl)c3c4c(nc(OC[C@@H]5CCCN5CC(F)F)nc4c2F)N([C@H](C)c2nccnc2N)CCO3)c1C(F)(F)F (atropisomer, axis not shown) [Example 158b, 3-((R)-1-((S)-9-(6-amino-4-methyl-3-(trifluoromethyl)pyridin-2-yl)-8-chloro-2-(((S)-1-(2,2-difluoroethyl)pyrrolidin-2-yl)methoxy)-10-fluoro-5,6-dihydro-4H-[1,4]oxazepino[5,6,7-de]quinazolin-4-yl)ethyl)pyrazin-2-amine] | 6.17 | 7.01
CSc1cncc(CN2CCOc3c(Cl)c(-c4nc(N)cc(C)c4C(F)(F)F)cc4ncnc2c34)c1 [Example 29, 6-(8-chloro-4-((5-(methylthio)pyridin-3-yl)methyl)-5,6-dihydro-4H-[1,4]oxazepino[5,6,7-de]quinazolin-9-yl)-4-methyl-5-(trifluoromethyl)pyridin-2-amine] | 5.13 | 5.13
Cc1cc(N)nc(-c2c(Cl)c3c4c(nc(OC[C@]56CCCN5CC(F)(F)C6)nc4c2F)N([C@H](C)c2nccnc2N)CCO3)c1C(F)(F)F (atropisomer, axis not shown) [Example 166a, 3-((R)-1-((R)-9-(6-amino-4-methyl-3-(trifluoromethyl)pyridin-2-yl)-8-chloro-2-(((R)-2,2-difluorotetrahydro-1H-pyrrolizin-7a(5H)-yl)methoxy)-10-fluoro-5,6-dihydro-4H-[1,4]oxazepino[5,6,7-de]quinazolin-4-yl)ethyl)pyrazin-2-amine] | 8.69 | 9.25
Cc1cc(N)nc(-c2c(Cl)c3c4c(nc(OCC56C[C@H](F)CN5C[C@H](F)C6)nc4c2F)N([C@H](C)c2cccnc2N)CCO3)c1C(F)(F)F (stereo partly drawn) [Example 98b, 6-((9R)-4-((R)-1-(2-aminopyridin-3-yl)ethyl)-8-chloro-2-(((2R,6S)-2,6-difluorotetrahydro-1H-pyrrolizin-7a(5H)-yl)methoxy)-10-fluoro-5,6-dihydro-4H-[1,4]oxazepino[5,6,7-de]quinazolin-9-yl)-4-methyl-5-(trifluoromethyl)pyridin-2-amine] | 9.90 | 10.00
Cc1cc(N)nc(-c2c(Cl)c3c4c(nc(OC[C@H]5C[C@@H]6COCCN65)nc4c2F)N([C@H](C)c2cccnc2N)CCO3)c1C(F)(F)F (atropisomer, axis not shown) [Example 99b, 6-((R)-2-(((6R,8R)-4-oxa-1-azabicyclo[4.2.0]octan-8-yl)methoxy)-4-((R)-1-(2-aminopyridin-3-yl)ethyl)-8-chloro-10-fluoro-5,6-dihydro-4H-[1,4]oxazepino[5,6,7-de]quinazolin-9-yl)-4-methyl-5-(trifluoromethyl)pyridin-2-amine] | 10.13 | 10.10
COCCN1CCC(Oc2nc3c4c(c(Cl)c(-c5nc(N)cc(C)c5C(F)(F)F)c(F)c4n2)OCCN3[C@H](C)c2cccnc2N)CC1 (atropisomer, axis not shown) [Example 126, 6-((R)-4-((R)-1-(2-aminopyridin-3-yl)ethyl)-8-chloro-10-fluoro-2-((1-(2-methoxyethyl)piperidin-4-yl)oxy)-5,6-dihydro-4H-[1,4]oxazepino[5,6,7-de]quinazolin-9-yl)-4-methyl-5-(trifluoromethyl)pyridin-2-amine] | 8.54 | 9.47
Cc1cc(N)nc(-c2cc3ncnc4c3c(c2Cl)OCCN4[C@@H](C)c2cncc(N)c2)c1C(F)(F)F [Example 4, (S)-6-(4-(1-(5-aminopyridin-3-yl)ethyl)-8-chloro-5,6-dihydro-4H-[1,4]oxazepino[5,6,7-de]quinazolin-9-yl)-4-methyl-5-(trifluoromethyl)pyridin-2-amine] | 5.00 | 5.85
Cc1cc(N)nc(-c2cc3nc(OCC4(C)CS(=O)(=O)C4)nc4c3c(c2Cl)OCCN4Cc2cccnc2N)c1C(F)(F)F [Example 55, 3-(((9-(6-amino-4-methyl-3-(trifluoromethyl)pyridin-2-yl)-4-((2-aminopyridin-3-yl)methyl)-8-chloro-5,6-dihydro-4H-[1,4]oxazepino[5,6,7-de]quinazolin-2-yl)oxy)methyl)-3-methylthietane 1,1-dioxide] | 6.89 | 7.72
